# From patent US8999982B2, “Pharmaceutically active compounds as Axl inhibitors” (Lead Discovery Center GmbH, priority 2010, dated 2015)
# Counter-ions that a name gives are not always drawn.
# Columns and labels:
# Axl [1] = biological target: T1, Axl (Homo sapiens (Human), UniProt P30530); test: Cellular Axl phosphorylation assay; type: cell-based; conditions: HEK293 cells transfected with Axl cDNA, 1 hour incubation
# Procedure: 3. Cellular Axl Phosphorylation Assay:
# HEK293 embryonal kidney fibroblasts were transfected in 96 wells with a plasmid containing Axl cDNA. As transfection reagent Superfect (Qiagen) was used. Transfection of the sole vector backbone served as negative control of Axl expression. After overnight incubation the cellular supernatant was replaced with fresh medium. On the following day the Axl-expressing cells were incubated for 1 hour with a compound according to formula (I) at the suitable concentrations. […] The mesoscale technology was used for quantification.
# Axl [2] = biological target: T1, Axl; test: Axl binding assay
# Procedure: Binding of the tracer to the kinase is detected using an EU-labeled anti-tag antibody. […] Binding of an inhibitor to the kinase competes for binding with the tracer, resulting in a loss of FRET-signal. At first a compound according to formula (I) was diluted in 20 mM Hepes pH 8.0, 1 mM DTT, 10 mM MgCl2 and 0.01% Brij35.
# T1 sequence (P30530 26-894): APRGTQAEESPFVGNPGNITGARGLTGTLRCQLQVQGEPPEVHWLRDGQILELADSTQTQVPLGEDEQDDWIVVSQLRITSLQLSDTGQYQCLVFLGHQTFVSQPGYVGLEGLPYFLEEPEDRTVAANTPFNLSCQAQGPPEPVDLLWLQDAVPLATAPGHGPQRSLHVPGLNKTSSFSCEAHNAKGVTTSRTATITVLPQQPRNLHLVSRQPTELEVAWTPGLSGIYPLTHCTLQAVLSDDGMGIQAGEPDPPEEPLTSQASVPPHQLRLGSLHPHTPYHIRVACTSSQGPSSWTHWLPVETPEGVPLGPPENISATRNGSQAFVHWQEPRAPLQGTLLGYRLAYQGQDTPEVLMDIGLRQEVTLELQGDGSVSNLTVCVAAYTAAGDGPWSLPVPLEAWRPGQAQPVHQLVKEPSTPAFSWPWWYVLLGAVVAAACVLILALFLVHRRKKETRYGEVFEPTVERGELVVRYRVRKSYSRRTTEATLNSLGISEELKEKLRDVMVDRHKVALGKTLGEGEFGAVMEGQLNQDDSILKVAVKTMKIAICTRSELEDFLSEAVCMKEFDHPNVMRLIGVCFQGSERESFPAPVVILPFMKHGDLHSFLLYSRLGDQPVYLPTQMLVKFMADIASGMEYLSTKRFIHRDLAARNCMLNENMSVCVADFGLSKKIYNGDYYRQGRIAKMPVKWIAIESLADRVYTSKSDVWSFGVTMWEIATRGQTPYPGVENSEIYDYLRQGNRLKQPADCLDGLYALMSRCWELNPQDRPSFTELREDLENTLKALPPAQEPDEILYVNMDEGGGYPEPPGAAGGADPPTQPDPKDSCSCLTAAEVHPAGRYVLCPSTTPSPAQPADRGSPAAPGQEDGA
IC50 (Axl [1]) [nM],IC50 (Axl [2]) [nM],Structure (SMILES)
< 500,< 500,"COc1cc2c(Oc3ccc(NC(=O)c4nn(-c5ccc(F)cc5)cc4OCCN(C)C)cc3F)ccnc2cc1OCCCN1CCOCC1 [Example 48, 4-(2-dimethylaminoethoxy)-N-[3-fluoro-4-[[6-methoxy-7-(3-morpholinopropoxy)-4-quinolyl]oxy]phenyl]-1-(4-fluorophenyl)pyrazole-3-carboxamide]"
< 500,< 500,"CCOc1cn(-c2ccc(F)cc2Br)nc1C(=O)Nc1ccc(Oc2ccnc3cc(OCCCN4CCOCC4)c(OC)cc23)c(F)c1 [Example 49, 1-(2-bromo-4-fluoro-phenyl)-4-ethoxy-N-[3-fluoro-4-[[6-methoxy-7-(3-morpholinopropoxy)-4-quinolyl]oxy]phenyl]pyrazole-3-carboxamide]"
< 500,< 500,"COCCOc1cn(-c2ccc(F)cc2)nc1C(=O)Nc1ccc(Oc2ccnc3cc(OCCCN4CCOCC4)c(OC)cc23)c(F)c1 [Example 50, N-[3-fluoro-4-[[6-methoxy-7-(3-morpholinopropoxy)-4-quinolyl]oxy]phenyl]-1-(4-fluorophenyl)-4-(2-methoxyethoxy)pyrazole-3-carboxamide]"
< 500,< 500,"COc1cc2c(Oc3ccc(NC(=O)c4nn(-c5ccc(F)cc5)cc4OCc4ccccc4)cc3F)ccnc2cc1OCCCN1CCOCC1 [Example 51, 4-benzyloxy-N-[3-fluoro-4-[[6-methoxy-7-(3-morpholinopropoxy)-4-quinolyl]oxy]phenyl]-1-(4-fluorophenyl)pyrazole-3-carboxamide]"
< 500,< 500,"COc1cc2c(Oc3ccc(NC(=O)c4nn(-c5ccc(F)cc5)cc4[N+](=O)[O-])cc3F)ccnc2cc1OCCCN1CCOCC1 [Example 52, N-[3-fluoro-4-[[6-methoxy-7-(3-morpholinopropoxy)-4-quinolyl]oxy]phenyl]-1-(4-fluorophenyl)-4-nitro-pyrazole-3-carboxamide]"
< 500,< 500,"COc1cc2c(Oc3ccc(NC(=O)c4nn(-c5ccc(F)cc5)cc4N)cc3F)ccnc2cc1OCCCN1CCOCC1 [Example 53, 4-amino-N-[3-fluoro-4-[[6-methoxy-7-(3-morpholinopropoxy)-4-quinolyl]oxy]phenyl]-1-(4-fluorophenyl)pyrazole-3-carboxamide]"
< 500,< 500,"CCOc1cn(-c2ccc(F)cc2)nc1C(=O)Nc1ccc(Oc2ccnc3cc(OCCCN)c(OC)cc23)c(F)c1 [Example 54, N-[4-[[7-(3-aminopropoxy)-6-methoxy-4-quinolyl]oxy]-3-fluoro-phenyl]-4-ethoxy-1-(4-fluorophenyl)pyrazole-3-carboxamide]"
< 500,< 500,"CCOc1cn(-c2ccc(F)cc2C)nc1C(=O)Nc1ccc(Oc2ccnc3cc(OCCCN)c(OC)cc23)c(F)c1 [Example 55, N-[4-[[7-(3-aminopropoxy)-6-methoxy-4-quinolyl]oxy]-3-fluoro-phenyl]-4-ethoxy-1-(4-fluoro-2-methyl-phenyl)pyrazole-3-carboxamide]"
< 500,< 500,"CCOc1oc(-c2ccc(F)cc2)nc1C(=O)Nc1ccc(Oc2ccnc3cc(OCCCN)c(OC)cc23)c(F)c1 [Example 56, N-[4-[[7-(3-aminopropoxy)-6-methoxy-4-quinolyl]oxy]-3-fluoro-phenyl]-5-ethoxy-2-(4-fluorophenyl)oxazole-4-carboxamide]"
< 500,< 500,"CCOc1cn(-c2ccc(F)cc2C)nc1C(=O)Nc1ccc(Oc2ccnc3cc(OCCCN4CCN(C)CC4)c(OC)cc23)c(F)c1 [Example 57, 4-ethoxy-N-[3-fluoro-4-[[6-methoxy-7-[3-(4-methylpiperazin-1-yl)propoxy]-4-quinolyl]oxy]phenyl]-1-(4-fluoro-2-methyl-phenyl)pyrazole-3-carboxamide]"
< 500,< 500,"CCOc1cn(-c2ccc(F)cc2)nc1C(=O)Nc1ccc(Oc2ccnc3cc(OCCCN4CCN(C)CC4)c(OC)cc23)c(F)c1 [Example 58, 4-ethoxy-N-[3-fluoro-4-[[6-methoxy-7-[3-(4-methylpiperazin-1-yl)propoxy]-4-quinolyl]oxy]phenyl]-1-(4-fluorophenyl)pyrazole-3-carboxamide]"
< 500,< 500,"COc1cc2c(Oc3ccc(NC(=O)c4nn(-c5ccc(F)cc5)cc4OC)cc3F)ccnc2cc1OCCCN1CCN(C)CC1 [Example 59, N-[3-fluoro-4-[[6-methoxy-7-[3-(4-methylpiperazin-1-yl)propoxy]-4-quinolyl]oxy]phenyl]-1-(4-fluorophenyl)-4-methoxy-pyrazole-3-carboxamide]"
< 500,< 500,"CCOc1cn(-c2ccc(F)cc2Cl)nc1C(=O)Nc1ccc(Oc2ccnc3cc(OCCCN4CCN(C)CC4)c(OC)cc23)c(F)c1 [Example 60, 1-(2-chloro-4-fluoro-phenyl)-4-ethoxy-N-[3-fluoro-4-[[6-methoxy-7-[3-(4-methylpiperazin-1-yl)propoxy]-4-quinolyl]oxy]phenyl]pyrazole-3-carboxamide]"
< 500,< 500,"COc1cc2c(Oc3ccc(NC(=O)c4nn(-c5ccc(F)cc5)cc4OCC4CC4)cc3F)ccnc2cc1OCCCN1CCN(C)CC1 [Example 61, 4-(cyclopropylmethoxy)-N-[3-fluoro-4-[[6-methoxy-7-[3-(4-methylpiperazin-1-yl)propoxy]-4-quinolyl]oxy]phenyl]-1-(4-fluorophenyl)pyrazole-3-carboxamide]"
< 500,< 500,"COc1cc2c(Oc3ccc(NC(=O)c4nn(-c5ccc(F)cc5)cc4OC(C)C)cc3F)ccnc2cc1OCCCN1CCN(C)CC1 [Example 62, N-[3-fluoro-4-[[6-methoxy-7-[3-(4-methylpiperazin-1-yl)propoxy]-4-quinolyl]oxy]phenyl]-1-(4-fluorophenyl)-4-isopropoxy-pyrazole-3-carboxamide]"
< 500,< 500,"CCOc1oc(-c2ccc(F)cc2)nc1C(=O)Nc1ccc(Oc2ccnc3cc(OCCCN4CCN(C)CC4)c(OC)cc23)c(F)c1 [Example 63, 5-ethoxy-N-[3-fluoro-4-[[6-methoxy-7-[3-(4-methylpiperazin-1-yl)propoxy]-4-quinolyl]oxy]phenyl]-2-(4-fluorophenyl)oxazole-4-carboxamide]"
< 500,< 500,"COc1cc2c(Oc3ccc(NC(=O)c4nn(-c5ccc(F)cc5)cc4OCC4CC4)cc3F)ccnc2cc1OCCCN1CCNCC1 [Example 64, 4-(cyclopropylmethoxy)-N-[3-fluoro-4-[[6-methoxy-7-(3-piperazin-1-ylpropoxy)-4-quinolyl]oxy]phenyl]-1-(4-fluorophenyl)pyrazole-3-carboxamide trifluoroacetic acid salt]"
< 500,< 500,"CCOc1cn(-c2ccc(F)cc2)nc1C(=O)Nc1ccc(Oc2ccnc3cc(OCCCN4CCNCC4)c(OC)cc23)c(F)c1 [Example 65, 4-ethoxy-N-[3-fluoro-4-[[6-methoxy-7-(3-piperazin-1-ylpropoxy)-4-quinolyl]oxy]phenyl]-1-(4-fluorophenyl)pyrazole-3-carboxamide]"
< 500,< 500,"COc1cc2c(Oc3ccc(NC(=O)c4nn(-c5ccc(F)cc5)cc4OC)cc3F)ccnc2cc1OCCCN1CCNCC1 [Example 66, N-[3-fluoro-4-[[6-methoxy-7-(3-piperazin-1-ylpropoxy)-4-quinolyl]oxy]phenyl]-1-(4-fluorophenyl)-4-methoxy-pyrazole-3-carboxamide]"
